Active and inactive are the calls of the source.
What was measured:
[1] = reduction of Shn3 3'UTR-driven luciferase in osteoblasts – cell-based, Clone20 osteoblasts, firefly luciferase, cherry-picked, dose response (AID 624132); assay type: functional;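 note: firefly luciferase luminescence from reporter carrying the Shn3 3'UTR in osteoblasts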
HEK293 [2] = assay: cells; assay type: functional, cell-based; details: Homo sapiens
[3] = luciferase reporter signal suppression in cells – H4 neuroglioma cells, luminescence, dose response (AID 1990); assay type: functional, cell-based
HEK293 [4] = assay: cells; assay type: functional, cell-based; details: Homo sapiens; remark: listed apart in the source
[5] = target: MAP kinase-activated protein kinase 2 (Homo sapiens, UniProt P49137); assay type: functional;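 note: measured as one member of a kinome-wide kinase panel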
[6] = target: Serine/threonine-protein kinase PAK 1 (Homo sapiens, UniProt Q13153); assay type: functional
[7] = target: Mitogen-activated protein kinase 9 (Homo sapiens, UniProt P45984); assay type: functional;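 note: value from a kinome panel profiling assay, MAPK9 panel entry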
[8] = target: Serine/threonine-protein kinase PAK 4 (Homo sapiens, UniProt O96013); assay type: functional;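 note: value obtained within a kinome profiling panel in which PAK4 was one of the panel members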
[9] = target: ALK tyrosine kinase receptor (Homo sapiens, UniProt Q9UM73); assay type: functional;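 note: ALK tested as one member of a kinase panel screen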
[10] = target: Non-receptor tyrosine-protein kinase TYK2 (Homo sapiens, UniProt P29597); assay type: functional
[11] = target: G protein-coupled receptor kinase 5 (Homo sapiens, UniProt P34947); assay: Navigating the Kinome. Panel member name: GPRK5; assay type: functional
[12] = target: Dual specificity mitogen-activated protein kinase kinase 1 (Homo sapiens, UniProt Q02750); assay: Navigating the Kinome. Panel member name: MAP2K1; assay type: functional
[13] = target: Ribosomal protein S6 kinase alpha-5 (Homo sapiens, UniProt O75582); assay type: functional
[14] = target: Vascular endothelial growth factor receptor 3 (Homo sapiens, UniProt P35916); assay type: functional;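 note: value from a kinome-wide profiling panel, with FLT4 as the panel member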
[15] = target: MAP kinase-activated protein kinase 5 (Homo sapiens, UniProt Q8IW41); assay type: functional;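 note: measured as one member of a kinome panel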
[16] = target: 5'-AMP-activated protein kinase catalytic subunit alpha-1 (Homo sapiens, UniProt Q13131); assay type: functional
[17] = target: Serine/threonine-protein kinase D3 (Homo sapiens, UniProt O94806); assay type: functional;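 note: determined within a kinase panel screen, with PRKCN as the panel member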
[18] = target: Protein-tyrosine kinase 6 (Homo sapiens, UniProt Q13882); assay type: functional
[19] = target: RAC-gamma serine/threonine-protein kinase (Homo sapiens, UniProt Q9Y243); assay type: functional
[20] = target: 3-phosphoinositide-dependent protein kinase 1 (Homo sapiens, UniProt O15530); assay type: functional;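 note: value comes from the Navigating the Kinome panel, PDPK1 member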
[21] = target: Serine/threonine-protein kinase PLK4 (Homo sapiens, UniProt O00444); assay type: functional;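 note: PLK4 measured as one member of a kinome-wide kinase profiling panel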
[22] = target: Cyclin-dependent kinase 5 (Homo sapiens, UniProt Q00535); assay type: functional;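 note: CDK5 measured as one member of a kinase profiling panel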
[23] = target: Ribosomal protein S6 kinase beta-1 (Homo sapiens, UniProt P23443); assay type: functional;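 note: measured as one member of a kinome-wide profiling panel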
[24] = target: Tyrosine-protein kinase ITK/TSK (Homo sapiens, UniProt Q08881); assay type: functional;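 note: affinity for ITK measured as one member of a broad kinase panel profiling binding across the kinome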
[25] = rise of 2N DNA cells, HeLa – IC50, dose response (AID 1117349); assay type: functional, cell-based
[26] = HPDE-C7 pancreatic duct cell viability loss – fluorescence, HTS (AID 430); assay type: functional, cell-based; details: Homo sapiens
Perilipin-1/ABHD5 = Perilipin-1/ABHD5 (Homo sapiens, UniProt O60240+Q8WTS1); assay: Luminescence-based biochemical high throughput dose response assay for inhibitors of the interaction of the lipase co-activator protein, abhydrolase domain containing 5 (ABHD5) with perilipin-1 (PLIN1) (2K validation set). [Related pubchem assays (depositor defined):AID493027, AID493057]
Aminopeptidase N = target: T1, Aminopeptidase N (Plasmodium falciparum FcB1/Columbia, UniProt O96935); assay: malaria alanyl aminopeptidase activity blockers – biochemical, fluorogenic H-Leu-NHMec substrate, 1536-well (AID 1445); set-up: species or system Plasmodium falciparum 3D7, 3D7
T1 sequence (O96935 whole entry): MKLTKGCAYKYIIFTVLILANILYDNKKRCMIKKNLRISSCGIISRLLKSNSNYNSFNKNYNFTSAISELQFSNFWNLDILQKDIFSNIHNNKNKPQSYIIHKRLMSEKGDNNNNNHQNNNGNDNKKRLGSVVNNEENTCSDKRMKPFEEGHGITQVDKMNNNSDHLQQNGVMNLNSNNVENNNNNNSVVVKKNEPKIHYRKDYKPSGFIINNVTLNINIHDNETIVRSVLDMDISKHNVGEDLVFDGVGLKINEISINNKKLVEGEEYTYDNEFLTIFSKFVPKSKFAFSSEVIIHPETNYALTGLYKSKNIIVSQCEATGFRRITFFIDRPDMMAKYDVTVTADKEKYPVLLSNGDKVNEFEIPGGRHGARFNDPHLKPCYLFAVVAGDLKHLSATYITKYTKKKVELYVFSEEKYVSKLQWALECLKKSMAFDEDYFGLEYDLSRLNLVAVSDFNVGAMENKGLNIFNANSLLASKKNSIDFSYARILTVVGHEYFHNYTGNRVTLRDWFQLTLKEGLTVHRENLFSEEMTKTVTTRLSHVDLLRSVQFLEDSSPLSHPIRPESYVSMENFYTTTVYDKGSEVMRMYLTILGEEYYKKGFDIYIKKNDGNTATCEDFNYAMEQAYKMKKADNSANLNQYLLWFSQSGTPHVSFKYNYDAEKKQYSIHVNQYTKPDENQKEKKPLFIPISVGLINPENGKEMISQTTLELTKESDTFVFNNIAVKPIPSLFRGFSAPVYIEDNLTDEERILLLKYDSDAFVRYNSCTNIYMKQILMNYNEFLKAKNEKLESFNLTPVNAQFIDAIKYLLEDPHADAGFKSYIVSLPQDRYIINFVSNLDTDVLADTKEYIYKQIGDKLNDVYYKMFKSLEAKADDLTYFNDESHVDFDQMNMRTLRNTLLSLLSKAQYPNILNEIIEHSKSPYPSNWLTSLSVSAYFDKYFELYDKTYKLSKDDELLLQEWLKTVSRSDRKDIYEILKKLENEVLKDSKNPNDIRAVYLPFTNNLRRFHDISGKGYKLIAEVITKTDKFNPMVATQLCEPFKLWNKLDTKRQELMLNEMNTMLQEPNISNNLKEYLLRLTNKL

Streptococcus = assay: GAS UMAA2166 growth inhibition – luminescence, BacTiterGlo, counter-screen for streptokinase expression inhibitor project, dose response (AID 1915); assay type: functional, organism-based;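 note: potency for reduction of bacterial viability or growth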
[27] = target: Envelope glycoprotein gp160 (Human immunodeficiency virus 1, UniProt Q6QLK5); assay: cell-free HIV fusion peptide-binding blockers – biochemical, uHTS, fluorescence dequenching, […] (AID 1986)

Chain of Protein-tyrosine kinase 6 (Q13882 whole entry): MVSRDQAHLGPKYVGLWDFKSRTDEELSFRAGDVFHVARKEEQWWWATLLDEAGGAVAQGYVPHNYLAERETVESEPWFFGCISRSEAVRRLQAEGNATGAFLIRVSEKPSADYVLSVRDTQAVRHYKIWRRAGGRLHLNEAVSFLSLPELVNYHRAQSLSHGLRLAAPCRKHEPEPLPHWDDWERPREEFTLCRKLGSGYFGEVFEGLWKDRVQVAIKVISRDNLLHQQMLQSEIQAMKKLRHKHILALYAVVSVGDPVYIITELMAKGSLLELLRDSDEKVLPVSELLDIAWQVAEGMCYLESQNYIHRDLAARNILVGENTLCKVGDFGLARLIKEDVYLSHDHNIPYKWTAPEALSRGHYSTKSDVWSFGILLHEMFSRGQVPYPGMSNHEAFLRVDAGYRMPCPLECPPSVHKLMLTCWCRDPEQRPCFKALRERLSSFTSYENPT
Chain of Cyclin-dependent kinase 5 (Q00535 whole entry): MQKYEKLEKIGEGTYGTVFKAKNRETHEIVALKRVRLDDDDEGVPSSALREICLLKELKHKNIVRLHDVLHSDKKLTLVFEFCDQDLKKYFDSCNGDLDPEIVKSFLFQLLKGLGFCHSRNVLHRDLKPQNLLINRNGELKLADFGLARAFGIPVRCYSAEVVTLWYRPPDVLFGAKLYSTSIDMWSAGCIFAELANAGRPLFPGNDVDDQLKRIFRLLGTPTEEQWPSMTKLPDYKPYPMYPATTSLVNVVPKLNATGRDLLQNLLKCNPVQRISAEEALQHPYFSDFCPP
Chain of Serine/threonine-protein kinase PAK 4 (O96013 whole entry): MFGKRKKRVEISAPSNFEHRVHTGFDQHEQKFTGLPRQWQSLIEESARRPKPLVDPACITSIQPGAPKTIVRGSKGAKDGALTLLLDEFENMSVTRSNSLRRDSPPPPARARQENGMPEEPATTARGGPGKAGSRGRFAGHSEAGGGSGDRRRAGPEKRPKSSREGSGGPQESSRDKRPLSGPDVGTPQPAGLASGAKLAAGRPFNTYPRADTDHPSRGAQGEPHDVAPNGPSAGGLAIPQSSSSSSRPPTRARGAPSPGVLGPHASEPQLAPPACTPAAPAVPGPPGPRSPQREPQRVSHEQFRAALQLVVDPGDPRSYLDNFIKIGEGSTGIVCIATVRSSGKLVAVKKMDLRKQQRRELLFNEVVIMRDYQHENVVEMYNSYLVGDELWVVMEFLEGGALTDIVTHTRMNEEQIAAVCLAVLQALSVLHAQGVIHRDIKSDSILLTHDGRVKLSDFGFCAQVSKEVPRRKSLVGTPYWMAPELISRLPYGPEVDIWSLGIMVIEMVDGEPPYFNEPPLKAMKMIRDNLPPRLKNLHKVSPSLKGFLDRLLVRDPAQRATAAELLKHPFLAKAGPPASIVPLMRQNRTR
Chain of 5'-AMP-activated protein kinase catalytic subunit alpha-1 (Q13131 whole entry): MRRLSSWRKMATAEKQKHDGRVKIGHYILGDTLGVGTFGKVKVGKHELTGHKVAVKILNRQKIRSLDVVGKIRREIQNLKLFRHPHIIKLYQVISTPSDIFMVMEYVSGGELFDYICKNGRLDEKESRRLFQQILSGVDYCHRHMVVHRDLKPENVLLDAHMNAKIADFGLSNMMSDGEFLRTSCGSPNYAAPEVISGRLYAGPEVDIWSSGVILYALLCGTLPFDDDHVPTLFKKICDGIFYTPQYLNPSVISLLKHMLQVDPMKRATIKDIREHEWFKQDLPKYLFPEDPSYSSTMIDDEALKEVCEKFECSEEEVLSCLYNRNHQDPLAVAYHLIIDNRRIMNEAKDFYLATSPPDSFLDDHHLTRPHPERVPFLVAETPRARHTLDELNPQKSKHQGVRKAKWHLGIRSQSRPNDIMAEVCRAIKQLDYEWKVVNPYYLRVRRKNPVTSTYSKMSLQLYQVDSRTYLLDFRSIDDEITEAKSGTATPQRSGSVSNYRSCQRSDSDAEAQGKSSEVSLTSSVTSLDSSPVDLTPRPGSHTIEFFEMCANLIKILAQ
Chain of Vascular endothelial growth factor receptor 3 (P35916 whole entry): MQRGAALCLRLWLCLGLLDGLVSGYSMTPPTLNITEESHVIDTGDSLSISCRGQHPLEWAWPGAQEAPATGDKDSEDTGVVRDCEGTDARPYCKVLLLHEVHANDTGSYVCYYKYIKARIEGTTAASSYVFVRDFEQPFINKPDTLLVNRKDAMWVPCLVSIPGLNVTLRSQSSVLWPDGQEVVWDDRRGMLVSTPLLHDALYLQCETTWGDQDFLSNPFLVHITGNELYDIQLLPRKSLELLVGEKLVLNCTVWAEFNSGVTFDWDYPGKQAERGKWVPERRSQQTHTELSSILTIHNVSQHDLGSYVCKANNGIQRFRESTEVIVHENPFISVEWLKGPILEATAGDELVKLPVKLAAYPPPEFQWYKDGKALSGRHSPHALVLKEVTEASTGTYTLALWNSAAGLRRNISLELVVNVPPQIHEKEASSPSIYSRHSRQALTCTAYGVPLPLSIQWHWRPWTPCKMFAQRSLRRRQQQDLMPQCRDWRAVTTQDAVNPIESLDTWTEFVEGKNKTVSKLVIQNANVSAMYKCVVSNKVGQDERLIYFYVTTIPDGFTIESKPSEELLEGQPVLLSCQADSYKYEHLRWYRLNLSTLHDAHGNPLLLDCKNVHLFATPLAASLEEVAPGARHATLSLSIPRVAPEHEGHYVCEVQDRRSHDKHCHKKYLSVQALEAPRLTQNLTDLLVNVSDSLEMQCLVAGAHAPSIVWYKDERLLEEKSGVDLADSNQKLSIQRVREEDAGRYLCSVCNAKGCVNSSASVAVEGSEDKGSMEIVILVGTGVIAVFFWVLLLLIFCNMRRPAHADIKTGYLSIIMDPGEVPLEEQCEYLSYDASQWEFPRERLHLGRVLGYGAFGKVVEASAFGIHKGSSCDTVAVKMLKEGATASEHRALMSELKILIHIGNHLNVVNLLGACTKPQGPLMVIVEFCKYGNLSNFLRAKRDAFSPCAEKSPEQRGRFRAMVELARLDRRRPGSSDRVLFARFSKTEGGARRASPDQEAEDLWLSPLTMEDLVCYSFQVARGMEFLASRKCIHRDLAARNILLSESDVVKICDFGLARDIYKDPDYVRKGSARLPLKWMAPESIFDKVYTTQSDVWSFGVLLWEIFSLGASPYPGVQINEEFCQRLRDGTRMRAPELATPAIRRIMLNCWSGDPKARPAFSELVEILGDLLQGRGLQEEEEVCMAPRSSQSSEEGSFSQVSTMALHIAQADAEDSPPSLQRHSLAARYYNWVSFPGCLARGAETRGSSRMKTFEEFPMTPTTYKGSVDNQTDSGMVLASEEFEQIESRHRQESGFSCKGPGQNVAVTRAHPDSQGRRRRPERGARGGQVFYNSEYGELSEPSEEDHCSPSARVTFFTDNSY
Chain of MAP kinase-activated protein kinase 5 (Q8IW41 whole entry): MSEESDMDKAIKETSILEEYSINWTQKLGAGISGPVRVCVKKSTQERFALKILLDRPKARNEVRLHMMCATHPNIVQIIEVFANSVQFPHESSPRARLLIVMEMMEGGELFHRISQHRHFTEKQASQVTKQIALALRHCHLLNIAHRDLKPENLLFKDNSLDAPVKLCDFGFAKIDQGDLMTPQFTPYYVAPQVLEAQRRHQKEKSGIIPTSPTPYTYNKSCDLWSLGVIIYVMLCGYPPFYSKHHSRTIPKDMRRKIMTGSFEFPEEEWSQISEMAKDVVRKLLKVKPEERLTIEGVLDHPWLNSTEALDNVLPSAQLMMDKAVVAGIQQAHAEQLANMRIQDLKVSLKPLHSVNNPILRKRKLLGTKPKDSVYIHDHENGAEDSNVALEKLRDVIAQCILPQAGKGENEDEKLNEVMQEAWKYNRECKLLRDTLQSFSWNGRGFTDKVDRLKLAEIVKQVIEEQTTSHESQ
Chain of Non-receptor tyrosine-protein kinase TYK2 (P29597 whole entry): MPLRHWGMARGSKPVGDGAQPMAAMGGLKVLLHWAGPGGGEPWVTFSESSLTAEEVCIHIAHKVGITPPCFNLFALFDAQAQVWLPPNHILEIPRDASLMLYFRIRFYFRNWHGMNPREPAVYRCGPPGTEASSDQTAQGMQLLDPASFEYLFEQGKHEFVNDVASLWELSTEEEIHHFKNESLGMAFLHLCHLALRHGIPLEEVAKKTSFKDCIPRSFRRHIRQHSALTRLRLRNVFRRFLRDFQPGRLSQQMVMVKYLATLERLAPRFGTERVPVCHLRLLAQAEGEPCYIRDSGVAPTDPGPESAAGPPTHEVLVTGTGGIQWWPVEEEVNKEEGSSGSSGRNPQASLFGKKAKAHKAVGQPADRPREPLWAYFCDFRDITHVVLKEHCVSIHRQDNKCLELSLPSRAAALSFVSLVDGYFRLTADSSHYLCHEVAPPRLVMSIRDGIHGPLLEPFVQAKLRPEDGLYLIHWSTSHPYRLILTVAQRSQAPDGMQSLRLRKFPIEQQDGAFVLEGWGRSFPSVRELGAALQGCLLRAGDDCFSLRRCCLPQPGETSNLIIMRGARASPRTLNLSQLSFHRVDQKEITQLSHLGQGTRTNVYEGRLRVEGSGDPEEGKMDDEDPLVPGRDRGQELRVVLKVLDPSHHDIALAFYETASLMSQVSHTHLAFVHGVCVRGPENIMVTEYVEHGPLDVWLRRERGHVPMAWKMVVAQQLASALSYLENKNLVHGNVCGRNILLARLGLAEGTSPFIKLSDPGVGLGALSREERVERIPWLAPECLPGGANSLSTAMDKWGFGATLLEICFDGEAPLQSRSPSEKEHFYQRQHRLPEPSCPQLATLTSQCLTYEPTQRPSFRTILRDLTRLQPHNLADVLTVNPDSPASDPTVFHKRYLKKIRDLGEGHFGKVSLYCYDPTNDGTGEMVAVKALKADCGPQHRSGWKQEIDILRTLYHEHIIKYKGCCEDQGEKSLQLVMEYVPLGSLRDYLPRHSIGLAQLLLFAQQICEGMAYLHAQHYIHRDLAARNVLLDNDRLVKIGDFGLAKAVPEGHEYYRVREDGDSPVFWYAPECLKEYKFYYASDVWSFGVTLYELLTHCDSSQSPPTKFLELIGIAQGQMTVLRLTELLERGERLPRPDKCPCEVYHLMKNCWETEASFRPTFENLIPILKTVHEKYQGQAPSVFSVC

**Q.** Which results are given for `O=C1C=C(N2CCOCC2)c2ccccc2C1=O`?
**A.** AC50 [1]: 7.16 µM (active); IC50 (HEK293 [2]): > 20 µM (inactive); EC50 [3]: 8.37 µM (active); IC50 (HEK293 [4]): 9.46 µM (active)

**Q.** For `N#Cc1ccc2[nH]c(O)c(-c3ccc(CN4CCOCC4)cn3)c2c1` [AZD-1080], which Ki [5] is on record?
**A.** > 7.94 µM (inactive)

**Q.** What about the Ki [6] of the same compound?
**A.** > 10 µM (inactive)

**Q.** What about the Ki [7] of the same compound?
**A.** > 3.98 µM (inactive)

**Q.** What about the Ki [8] of the same compound?
**A.** > 5.01 µM (inactive)

**Q.** And the Ki [9]?
**A.** > 3.98 µM (inactive)

**Q.** What about the Ki [10] of the same compound?
**A.** > 2 µM (inactive)

**Q.** What about the Ki [11] of the same compound?
**A.** > 3.98 µM (inactive)

**Q.** And the Ki [12]?
**A.** > 3.16 µM (inactive)

**Q.** What about the Ki [13] of the same compound?
**A.** > 2 µM (inactive)

**Q.** And the Ki [14]?
**A.** > 6.31 µM (inactive)

**Q.** And the Ki [15]?
**A.** > 1.58 µM (inactive)

**Q.** And the Ki [16]?
**A.** > 2.51 µM (inactive)

**Q.** And the Ki [17]?
**A.** > 5.01 µM (inactive)

**Q.** And the Ki [18]?
**A.** > 2.51 µM (inactive)

**Q.** What about the Ki [19] of the same compound?
**A.** > 10 µM (inactive)

**Q.** What about the Ki [20] of the same compound?
**A.** > 3.98 µM (inactive)

**Q.** What about the Ki [21] of the same compound?
**A.** > 3.98 µM (inactive)

**Q.** And the Ki [22]?
**A.** 0.398 µM (active)

**Q.** What about the Ki [23] of the same compound?
**A.** > 6.31 µM (inactive)

**Q.** What about the Ki [24] of the same compound?
**A.** > 1.58 µM (inactive)

**Q.** With `CCc1oc2ccccc2c1C(=O)c1cc(Br)c(O)c(Br)c1` [BENZBROMARONE] as the compound, how does the IC50 [25] read?
**A.** > 10 µM (inactive)

**Q.** And the EC50 [26]?
**A.** 5.71 µM (active)

**Q.** What about the IC50 (Perilipin-1/ABHD5) of the same compound?
**A.** 15 µM (inactive)

**Q.** What about the IC50 (Aminopeptidase N) of the same compound?
**A.** 62.8 µM (active)

**Q.** What about the EC50 (Streptococcus) of the same compound?
**A.** > 150 µM (not active)

**Q.** What about the IC50 [27] of the same compound?
**A.** 12.8 µM (active)
